Test results from US20050272040A1, “Method for increasing synaptic growth or plasticity” (priority 2002, published 2005).

System: hippocampal cells
Test: Whole-cell patch-clamp recordings of synaptic charge
Type: cell-based, rat
Details: for Effect on synaptic charge: perfusion of synthetic rat VGF peptide, 0.1 μM
Method: To examine the relationship between synaptic response and gene expression, an individual cell's electrophysiological response to BDNF was examined in conjunction with single-cell RT-PCR for Arc. […] Whole-cell patch-clamp recordings from 16 cells verified 0.8- to 4.5-fold increase in synaptic charge following 20 minutes BDNF exposure. […] A group of BDNF-treated cells presenting a minimal synaptic response was apparent. This group was categorized as non-responders (FIG. 1B) and the other cells showing a greater response to BDNF were classified as responders. To determine whether cellular basal activity influences the response to BDNF, the average synaptic charge pre-BDNF of the responders (36±13.1 pC, n=7) versus the non-responders (23.2±6.6 pC, n=9) was compared.
To explore a functional role for VGF in neuromodulation, whole-cell patch-clamp recordings on hippocampal cells were performed in the presence of synthetic VGF peptides. The electrophysiological profile of VGF peptides on hippocampal cells was similar to that observed for BDNF (Levine et al. (1996) supra). […] Enhanced synaptic activity was maintained for up to 25 minutes in the continued presence of Thr-Leu-Gln-Pro-62 (SEQ ID NO:14). […] The effects of both Ala-Gln-Glu-Glu-30 (SEQ ID NO:16) and Thr-Leu-Gln-Pro-62 (SEQ ID NO:14) peptides were dose-dependent, saturating at 0.1 μM.
Whole-cell patch clamp recordings were performed after 10-14 days in culture. Currents were recorded with an Axoclamp 200 amplifier, digitized at 2.5 kHz with an INDEC IDA 15125 interface, filtered at 5 kHz and stored. Recording parameters and stimulus protocols were controlled by custom software written with Borland C++ that utilizes device driver libraries supplied by INDEC. Data analysis programs were written with Microsoft Visual Basic. The. external bath solution for voltage clamp recordings was (in mM) 1.67 CaCl2, 1 MgCl2, 5.36 KCl, 137 NaCl, 17 glucose, 10 HEPES and 20 sucrose (neuron recording solution, NRS). The pipette solution contained (in mM) 105 Cs-methanesulfonate, 17.5 CsCl, 10 HEPES, 0.2 EGTA, 8 NaCl, 2 Mg-ATP, 2 Na-ATP, 0.3 Na-GTP, 20 phosphocreatinine, and 50 U/ml creatinine phosphokinase. All recordings were made at room temperature. The typical range of pipette resistance was 3-5 MΩ. Cell capacitance was 10-20 pF and access resistance was 7-20 MΩ. Vacuum perfusion system contained BDNF (50 ng/ml, Preprotech, Princeton, N.J.), NRS as a control or VGF peptides (0.1 μM=740 ng/ml). Three synthetic rat VGF peptides were used: Leu-Glu-Gly-Ser-28 (SEQ ID NO:15) amino acids 285-312 (amidated), Thr-Leu-Gln-Pro-62 (SEQ ID NO:14) amino acids 556-617 and Ala-Gln-Glu-Glu-30 (SEQ ID NO:16) amino acids 588-617. Each data point represents a cell from a separate dish and at least three different platings were used for each condition.
Data were analyzed by integrating the synaptic currents for each sweep (synaptic charge). The charge measurements for all sweeps in a 1 min period were averaged (binned). Baseline is considered the average synaptic charge during the 2 min period (−2 to 0 min) in NRS immediately prior to BDNF or VGF application. Fold increases were then determined by dividing the synaptic charge during BDNF or VGF exposure by the baseline. Recordings were rejected if either the 0-5 min binned time period or 5-10 min binned time period after switching during BDNF or VGF exposure was 2×SEM below baseline, indicating “run down”.

| Substance | Saturating concentration of dose-dependent effect on synaptic charge [µM] | Time to increased synaptic charge (after start of peptide perfusion) [min] | Time enhanced synaptic activity was maintained (continued presence of peptide) | Effect on synaptic charge |
| --- | --- | --- | --- | --- |
| Thr-Leu-Gln-Pro-62: synthetic rat VGF peptide, amino acids 556-617, C-terminal portion of VGF (TLQP) | 0.1 | ≤ 5 | up to 25 minutes | Increased synaptic charge |
| Leu-Glu-Gly-Ser-28: synthetic rat VGF peptide, amino acids 285-312 (amidated), N-terminal region |  |  |  | no change in synaptic charge |
| Ala-Gln-Glu-Glu-30: synthetic rat VGF peptide, amino acids 588-617, C-terminal region (AQEE) | 0.1 |  |  |  |
